Test results taken from US10174097B2, “Specific A-beta species-binding peptides for the therapy and/or diagnosis of Alzheimer's dementia” (Forschungszentrum Juelich GmbH, priority 2015, dated 2019).
Entries after “also recorded” stand apart in the source; their conditions may differ. Where a SMILES comes first, the peptide text is derived from it. [ ]: non-standard residue; d: D form. dPhe(4-F) = N[C@H](Cc1ccc(F)cc1)C(=O)O

Tests used:
[1] = tested on: SH-SY5Y cells; assay: MTT assay on SH-SY5Y cells without Abeta co-incubation; format: cell-based; conditions: FIG. 4a
From the text: (§1) No noteworthy toxicity of the peptides according to the invention in therapeutically relevant concentrations was established in the MTT assay on SH-SY5Y cells known to a person skilled in the art (FIG. 4). […] Based on current knowledge, Abeta oligomer is the toxic species.
(§2) The significances are based on the respective concentration with D3 (* p≤0.05; ** p≤0.01; *** p≤0.001; n. s. not significant).

[2] = molecular target: T1, Abeta monomers (Homo sapiens, UniProt P05067); assay: Peptide microarray, binding of FITC Abeta monomers to immobilized peptides; conditions: for Binding specificity monomer to fibrils: quotient binding signal to monomers / binding signal to fibrils; for Binding specificity monomer to oligomer: quotient binding signal to monomers / binding signal to oligomers
T1 construct: incubate with FITC Abeta monomers, oligomers, fibrils and FITC for 1 hour at room temperature
T1 sequence (P05067 672-713 limits assumed): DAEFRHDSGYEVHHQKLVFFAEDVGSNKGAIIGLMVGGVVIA
Description: (§3) The procedure for identifying peptides that bind specifically to amyloid beta monomer or specifically to amyloid beta oligomers and for determining the binding specificity of peptides within the meaning of the present invention can thus be as follows. Peptide microarrays comprising various peptides immobilized on a surface, such as derivatives of D3, are each incubated with different species of Abeta (such as monomers, oligomers and fibrils) labeled with a fluorescent dye. A peptide microarray is incubated with only the fluorescent dye to serve as the control. So as to ensure the reproducibility of the results, the incubation of the peptide microarrays can be carried out at least three times for each species. The binding of the fluorescence-labeled Abeta to the immobilized peptides is detected by way of the fluorescent dye. The more Abeta binds to the peptide, the higher the fluorescence signal is. The measured fluorescence signals of the reproductions are standardized, and the […]. This avoids binding of the fluorescence-labeled Abeta via the dye. The binding signals of an Abeta species to a peptide are then averaged. So as to determine the binding specificity, the quotient of the species to which the peptide is to specifically bind and another species is found.
(§4) Pretreatment of the peptide microarray slides: • briefly dip 3× in ethanol (96%) and then wash with H2O (30 minutes) • briefly dry by way of centrifuging
(§5) Preparation of monomers and oligomers: • size exclusion chromatography according to Johansson et al. 2006 (Johansson, A.-S. et al. Physiochemical characterization of the Alzheimer's disease-related peptides Aβ1-42Arctic and Aβ1-42 wt. FEBS Journal 273, 2618-2630 (2006)). • oligomers were fractionated at 8-9 ml, monomers at 16-17 ml.
(§6) Carrying out the peptide microarray: • incubate with FITC Abeta monomers, oligomers, fibrils and FITC for 1 hour at room temperature • wash: TBS-T briefly 3× (only TBS-T buffer is replaced), 3×10 minutes in a flacon, 3×H2O, 3×10 minutes • dry by way of centrifugation • The binding of the fluorescence-labeled Abeta to the immobilized peptides is detected by way of the fluorescent dye using the microarray reader FLA800 from Fuji Film. The more Abeta binds to the peptide, the higher is the fluorescence signal. • carrier set mode: slides • resolution: 10 μm • scan mode: high sensitivity (slow): scan pixel at 200 mm/s • laser: 473 nm • filter: 530 DF 20 • photomultiplier tube (PMT) HV (%): 100 • images were stored as .tif files
(§7) The software, AIDA Metrix, from Raytest was used to evaluate the fluorescence signals:
(§8) To ensure the reproducibility of the results, the incubation of the peptide microarrays is carried out at least three times for each species.
(§9) The measured fluorescence signals of the reproductions are standardized using a median-based standardization, and the control was subtracted from the signal. This avoided the binding of the fluorescence-labeled Abeta via the dye.
(§10) The binding signals of an Abeta species to a peptide were averaged.
So as to determine the binding specificity, the quotient of the species to which the peptide is to specifically bind and another species is created.
Example: binding specificity of peptide X to Abeta monomers=binding signal of peptides X to monomers/binding signal of peptides X to oligomers.

[3] = molecular target: T2, Abeta oligomers (Homo sapiens, UniProt P05067); assay: QIAD method, elimination of Abeta oligomers (density gradient centrifugation, RP-HPLC); format: biochemical; conditions: for Elimination of Abeta oligomers: ratio of Abeta to peptide of 8:1, fractions 4-6, FIG. 2; for Elimination of Abeta oligomers compared to D3: ratio of Abeta to peptide of 8:1, FIG. 2
T2 sequence (P05067 672-713 limits assumed): as above
Description: Using the QIAD method for the quantitative characterization of amyloid peptides and/or proteins in a sample, it was possible to quantify the properties of the substances. Pre-incubated Abeta was co-incubated with the peptides. The different Abeta species were separated by way of density gradient centrifugation and quantified in the individual fractions by way of RP-HPLC Abeta. The elimination of the Abeta oligomers in fractions 4-6 was analyzed.

[4] = tested on: SH-SY5Y cells; assay: MTT assay on SH-SY5Y cells with Abeta co-incubation; format: cell-based; conditions: for Reduction of the toxicity caused by Abeta: co-incubating Abeta with peptide in various concentrations, FIG. 4b; for Reduction of Abeta toxicity compared to D3: respective concentration with D3, FIG. 4b
From the text: as §1, §2

[5] = molecular target: T3, Abeta fibrils (Homo sapiens, UniProt P05067); assay: ThT assay, formation of ThT positive Abeta fibrils; format: biochemical; conditions: for ThT fluorescence during the entire measuring time period: 48 hours, co-incubation with Abeta, FIG. 3
T3 construct: Pre-incubated Abeta was co-incubated with the peptides
T3 sequence (P05067 672-713 limits assumed): as above

[6] = molecular target: T2, Abeta oligomers; assay: Peptide microarray, binding of FITC Abeta oligomers to immobilized peptides; conditions: 1 hour at room temperature, control subtracted, averaged
Description: as §3, §4, §5, §6, §7, §8, §9, §10

[7] = tested on: transgenic AD mice; conditions: oral administration with drinking water; cited from earlier work
[8] = molecular target: T3, Abeta fibrils; assay: Peptide microarray, binding of FITC Abeta fibrils to immobilized peptides; conditions: 1 hour at room temperature, control subtracted, averaged
Description: as §3, §4
Preparation of fibrils: • incubate Abeta over 3 days, centrifuge, discard supernatant and resuspend in buffer (repeat 3 times)
as §6, §7, §8, §9, §10

Compound	Toxic effect of the peptide alone on the cells [1]	Binding specificity monomer to fibrils [2]	Binding specificity monomer to oligomer [2]	Elimination of Abeta oligomers [3] [%]	Reduction of the toxicity caused by Abeta [4]	Reduction of Abeta toxicity compared to D3 [4]	ThT fluorescence during the entire measuring time period [5]	Elimination of Abeta oligomers compared to D3 [3]	ThT fluorescence ([5]; after 48 hours) [rfu]	ThT fluorescence as % of the ThT fluorescence of Abeta control ([5]; after 48 hours) [%]	Binding specificity with respect to Abeta monomer ([2]; FIG. 1b, quotient of binding signals)	Binding signal to Abeta monomers ([2]; peptide microarray, FITC Abeta, 1 hour at room temperature, control subtracted, averaged) [rfu]	Binding signal to Abeta oligomers [6] [rfu]	Cognitive abilities of treated transgenic AD mice [7]	Plaque in treated transgenic AD mice [7]	Binding signal to Abeta fibrils [8] [rfu]
CC[C@@H](C)[C@@H](NC(=O)[C@@H](CCCNC(=N)N)NC(=O)[C@@H](CCCCN)NC(=O)[C@H](N)CCCNC(=N)N)C(=O)N[C@H](CCCNC(=N)N)C(=O)N[C@H](CC(C)C)C(=O)N[C@@H](C(=O)N[C@H](Cc1ccc(O)cc1)C(=O)N[C@H](Cc1c[nH]cn1)C(=O)N[C@H](Cc1c[nH]c2ccccc12)C(=O)N[C@H](CC(N)=O)C(=O)N[C@H](CCCNC(=N)N)C(N)=O)C(C)C [ANK4, rkrirlvyhwnr] (H-[dR][dK][dR][dI][dR][dL][dV][dY][dH][dW][dN][dR]-NH2)	do not have a toxic effect	4.3	3.3	59±16	reduced; also recorded: reduction in the Abeta toxicity was achieved	more efficient	slight increase									
CC(C)C[C@@H](NC(=O)[C@@H](CCCNC(=N)N)NC(=O)[C@H](NC(=O)[C@@H](CCCNC(=N)N)NC(=O)[C@@H](CCCCN)NC(=O)[C@H](N)CCCNC(=N)N)C(C)C)C(=O)N[C@@H](C(=O)N[C@H](Cc1ccc(O)cc1)C(=O)N[C@H](Cc1c[nH]cn1)C(=O)N[C@H](CCCCN)C(=O)N[C@H](CCCCN)C(=O)N[C@H](CCCNC(=N)N)C(N)=O)C(C)C [ANK5, rkrvrlvyhkkr] (H-[dR][dK][dR][dV][dR][dL][dV][dY][dH][dK][dK][dR]-NH2)	do not have a toxic effect	2.2	5.9	72±2	reduced; also recorded: reduction in the Abeta toxicity was achieved			significantly more efficiently than D3	1029	53						
CC[C@@H](C)[C@@H](NC(=O)[C@@H](CCCNC(=N)N)NC(=O)[C@@H](CCCCN)NC(=O)[C@H](N)CCCNC(=N)N)C(=O)N[C@H](CCCNC(=N)N)C(=O)N[C@H](CC(C)C)C(=O)N[C@@H](C(=O)N[C@@H](C(=O)N[C@H](CCCCN)C(=O)N[C@H](CCCCN)C(=O)N[C@H](CCCCN)C(=O)N[C@H](CCCNC(=N)N)C(N)=O)[C@H](C)O)C(C)C [ANK6, rkrirlvtkkkr] (H-[dR][dK][dR][dI][dR][dL][dV][dT][dK][dK][dK][dR]-NH2)	do not have a toxic effect	1.9	4.1	81±3	reduced; also recorded: reduction in the Abeta toxicity was achieved	more efficient	slight increase	significantly more efficiently than D3								
CC[C@@H](C)[C@@H](NC(=O)[C@@H](Cc1c[nH]cn1)NC(=O)[C@H](NC(=O)[C@@H](Cc1ccc(F)cc1)NC(=O)[C@@H](CC(C)C)NC(=O)[C@@H](CCCNC(=N)N)NC(=O)[C@H](NC(=O)[C@@H](CCCNC(=N)N)NC(=O)[C@@H](CCCCN)NC(=O)[C@H](N)CCCNC(=N)N)C(C)C)[C@H](C)O)C(=O)N[C@H](CCCCN)C(=O)N[C@H](CCCNC(=N)N)C(N)=O [ANK7, rkrvrl02thikr] (H-[dR][dK][dR][dV][dR][dL][dPhe(4-F)][dT][dH][dI][dK][dR]-NH2)	do not have a toxic effect	6.8	6.4	73±1	reduced; also recorded: reduction in the Abeta toxicity was achieved		slight increase	significantly more efficiently than D3								
rprtrlhthrnr [D3, reference compound]		0.6	0.8	50±10							less than 1	0.5	0.6	significantly improved cognitive abilities	considerably less plaque	0.8
